Experimental data taken from US20240360178A1, “MACROCYCLIC IMMUNOMODULATORS” (Bristol-Myers Squibb Company, priority 2021, published 2024).
Positions of bridges follow the written chain, without caps; N, C: chain ends. Non-standard residues stand in square brackets, D forms with d. Residues, ends and D or L forms follow the SMILES beside them. ξ: configuration not given here. Phe(4-COOH) = N[C@@H](Cc1ccc(C(=O)O)cc1)C(=O)O; Bip = N[C@@H](Cc1ccc(-c2ccccc2)cc1)C(=O)O; Phe(3-Cl) = N[C@@H](Cc1cccc(Cl)c1)C(=O)O; Phe(3-OMe) = COc1cccc(C[C@H](N)C(=O)O)c1; NMeF = CN[C@@H](Cc1ccccc1)C(=O)O; Cha = N[C@@H](CC1CCCCC1)C(=O)O; hSer = N[C@@H](CCO)C(=O)O; ξR = N=C(N)NCCCC(N)C(=O)O; NMeA = CN[C@@H](C)C(=O)O; Orn = NCCC[C@H](N)C(=O)O; Dab = NCC[C@H](N)C(=O)O; Sar = CNCC(=O)O

Target: T1, human PD-1 (Jurkat-PD-1 cells) / PE-labeled human PD-L1-Ig (Homo sapiens, UniProt Q15116)
T1 construct: expressed in transfected cells; host or cells: Jurkat cell line over-expressing human PD-1
T1 sequence (Q15116 25-288): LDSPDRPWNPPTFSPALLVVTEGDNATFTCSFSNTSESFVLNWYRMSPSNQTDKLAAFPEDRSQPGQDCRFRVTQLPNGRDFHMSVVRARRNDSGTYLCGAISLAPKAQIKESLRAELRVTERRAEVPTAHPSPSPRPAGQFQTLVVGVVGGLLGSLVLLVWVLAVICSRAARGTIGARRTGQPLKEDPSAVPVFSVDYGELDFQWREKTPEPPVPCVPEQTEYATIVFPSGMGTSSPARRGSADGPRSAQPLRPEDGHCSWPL
Test: Jurkat-PD-1 Cell Binding High-Content Screening Assay (CBA); Jurkat hPD1-PDL1 assay
Settings: Jurkat cell line over-expressing human PD-1; PE-labeled PD-L1-Ig 20 nM final; compound incubated 2 hours at 37° C.; read-out: Jurkat HPD1-PDL1 IC50
Outline: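 Compound was added to Jurkat-PD-1 cells in DMEM plus 10% fetal calf serum and incubated 2 hours at 37° C. Binding of phycoerythrin-conjugated PD-L1-Ig (20 nM final) to the cells was imaged.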

Row | SMILES | IC50 [nM]
1 | CC(C)C[C@@H]1NC(=O)[C@H](CCCNC(=N)N)NC(=O)[C@H](Cc2ccccc2)N(C)C(=O)[C@H](C)N(C)C(=O)[C@H](CCCNC(=N)N)NC(=O)[C@H](Cc2ccc(-c3ccccc3)cc2)NC(=O)[C@H](C(C)C)NC(=O)[C@H](Cc2cccc(Cl)c2)NC(=O)[C@H](CC(=O)O)NC(=O)[C@H](Cc2ccc(O)cc2)NC(=O)[C@H](Cc2ccccc2)NC(=O)CSC[C@@H](C(=O)NCC(N)=O)NC(=O)[C@H](CO)NC(=O)[C@H](C(C)C)NC1=O [Example 1241] ({CH2CO}-FYD[Phe(3-Cl)]V[Bip]R[NMeA][NMeF]RLVSCG-NH2; thioether N-14) | 270
2 | CC(C)C[C@@H]1NC(=O)[C@H](CCCNC(=N)N)NC(=O)[C@H](Cc2ccccc2)N(C)C(=O)[C@H](C)N(C)C(=O)[C@H](CCC(=O)O)NC(=O)[C@H](Cc2ccc(-c3ccccc3)cc2)NC(=O)[C@H](C(C)C)NC(=O)[C@H](Cc2c[nH]c3ccccc23)NC(=O)[C@H](CC(=O)O)NC(=O)[C@H](Cc2ccc(O)cc2)NC(=O)[C@H](CCC(N)=O)NC(=O)CSC[C@@H](C(=O)NCC(N)=O)NC(=O)[C@H](CO)NC(=O)[C@H](C(C)C)NC1=O [Example 1286] ({CH2CO}-QYDWV[Bip]E[NMeA][NMeF]RLVSCG-NH2; thioether N-14) | 750
3 | CC(C)C[C@@H]1NC(=O)[C@H](CCCNC(=N)N)NC(=O)[C@H](Cc2ccccc2)N(C)C(=O)[C@H](C)N(C)C(=O)[C@H](CCCNC(=N)N)NC(=O)[C@H](Cc2ccc(-c3ccccc3)cc2)NC(=O)[C@H](C(C)C)NC(=O)[C@H](Cc2c[nH]c3ccccc23)NC(=O)[C@H](CC(=O)O)NC(=O)[C@H](Cc2ccc(O)cc2)NC(=O)[C@H](CCCNC(=N)N)NC(=O)CSC[C@@H](C(=O)NCC(N)=O)NC(=O)[C@H](CO)NC(=O)[C@H](C(C)C)NC1=O [Example 1212] ({CH2CO}-RYDWV[Bip]R[NMeA][NMeF]RLVSCG-NH2; thioether N-14) | 610
4 | CC(C)C[C@@H]1NC(=O)[C@H](CCCNC(=N)N)NC(=O)[C@H](Cc2ccccc2)N(C)C(=O)[C@H](C)N(C)C(=O)[C@H](CCC(=O)O)NC(=O)[C@H](Cc2ccc(-c3ccccc3)cc2)NC(=O)[C@H](C(C)C)NC(=O)[C@H](Cc2c[nH]c3ccccc23)NC(=O)[C@H](CC(=O)O)NC(=O)[C@H](Cc2ccc(O)cc2)NC(=O)[C@H](CC(N)=O)NC(=O)CSC[C@@H](C(=O)N[C@@H](C)C(N)=O)NC(=O)[C@H](CCCN)NC(=O)[C@H](C(C)C)NC1=O [Example 1378] ({CH2CO}-NYDWV[Bip]E[NMeA][NMeF]RLV[Orn]CA-NH2; thioether N-14) | 110
5 | CC(C)C[C@@H]1NC(=O)[C@H](C)NC(=O)CN(C)C(=O)[C@H](C)N(C)C(=O)[C@H](C(C)C)NC(=O)[C@H](Cc2ccc(-c3ccccc3)cc2)NC(=O)[C@H](CC(C)C)NC(=O)[C@H](Cc2c[nH]c3ccccc23)NC(=O)[C@H](CC(=O)O)NC(=O)[C@H](Cc2ccc(O)cc2)NC(=O)[C@H](Cc2ccccc2)NC(=O)CSC[C@@H](C(=O)NCC(N)=O)NC(=O)[C@H](CO)NC(=O)[C@H](C(C)C)NC1=O [Example 1130] ({CH2CO}-FYDWL[Bip]V[NMeA][Sar]ALVSCG-NH2; thioether N-14) | 500
6 | COCC[C@@H]1NC(=O)[C@H](C(C)C)NC(=O)[C@H](CC(C)C)NC(=O)[C@H](CCCNC(=N)N)NC(=O)[C@H](Cc2ccccc2)N(C)C(=O)[C@H](C)N(C)C(=O)[C@H](CCCNC(=N)N)NC(=O)[C@H](Cc2ccc(-c3ccccc3)cc2)NC(=O)[C@H](C(C)C)NC(=O)[C@H](Cc2c[nH]c3ccccc23)NC(=O)[C@H](CC(=O)O)NC(=O)[C@H](Cc2ccc(O)cc2)NC(=O)[C@H](Cc2ccccc2)NC(=O)CSC[C@@H](C(=O)NCC(N)=O)NC1=O [Example 1259] ({CH2CO}-FYDWV[Bip]R[NMeA][NMeF]RLV[hSer](Me)CG-NH2; thioether N-14) | 260
7 | CC(C)C[C@@H]1NC(=O)[C@H](Cc2c[nH]c3ccccc23)NC(=O)[C@H](CC(=O)O)NC(=O)[C@H](Cc2ccc(O)cc2)NC(=O)[C@H](CC(N)=O)NC(=O)CSC[C@@H](C(=O)N[C@@H](C)C(N)=O)NC(=O)[C@H]([C@@H](C)O)NC(=O)[C@H](C(C)C)NC(=O)[C@H](CC(C)C)NC(=O)[C@H](CCN)NC(=O)[C@H]2CCCN2C(=O)[C@H](CCCN)NC(=O)[C@H](C(C)C)NC(=O)[C@H](Cc2ccc(-c3ccccc3)cc2)NC1=O [Example 1402] ({CH2CO}-NYDWL[Bip]V[Orn][dP][Dab]LVTCA-NH2; thioether N-14) | 260
8 | CC(C)C[C@@H]1NC(=O)[C@H](CCCNC(=N)N)NC(=O)[C@H](Cc2ccccc2)N(C)C(=O)[C@H](C)N(C)C(=O)[C@H](CCCNC(=N)N)NC(=O)[C@H](Cc2ccc(-c3ccccc3)cc2)NC(=O)[C@H](C(C)C)NC(=O)[C@H](Cc2c[nH]c3ccccc23)NC(=O)[C@H](CC(=O)O)NC(=O)[C@H](Cc2ccc(O)cc2)NC(=O)[C@H](CC(N)=O)NC(=O)CSC[C@@H](C(=O)NCC(N)=O)NC(=O)[C@H]([C@@H](C)O)NC(=O)[C@H](C(C)C)NC1=O [Example 1310] ({CH2CO}-NYDWV[Bip]R[NMeA][NMeF]RLVTCG-NH2; thioether N-14) | 340
9 | CC(C)C[C@@H]1NC(=O)[C@H](CCCCN)NC(=O)[C@H](Cc2ccccc2)N(C)C(=O)[C@H](C)N(C)C(=O)[C@H](CCCNC(=N)N)NC(=O)[C@H](Cc2ccc(-c3ccccc3)cc2)NC(=O)[C@H](C(C)C)NC(=O)[C@H](Cc2c[nH]c3ccccc23)NC(=O)[C@H](CC(=O)O)NC(=O)[C@H](Cc2ccc(O)cc2)NC(=O)[C@H](CC(N)=O)NC(=O)CSC[C@@H](C(=O)N[C@@H](C)C(N)=O)NC(=O)[C@H]([C@@H](C)O)NC(=O)[C@H](C(C)C)NC1=O [Example 1384] ({CH2CO}-NYDWV[Bip]R[NMeA][NMeF]KLVTCA-NH2; thioether N-14) | 220
10 | CC(C)C[C@@H]1NC(=O)[C@H](CCCNC(=N)N)NC(=O)[C@H](Cc2ccccc2)N(C)C(=O)[C@H](C)N(C)C(=O)[C@H](C)NC(=O)[C@H](Cc2ccc(-c3ccccc3)cc2)NC(=O)[C@H](C(C)C)NC(=O)[C@H](Cc2c[nH]c3ccccc23)NC(=O)[C@H](CC(=O)O)NC(=O)[C@H](Cc2ccc(O)cc2)NC(=O)[C@H](Cc2ccccc2)NC(=O)CSC[C@@H](C(=O)NCC(N)=O)NC(=O)[C@H](CO)NC(=O)[C@H](C(C)C)NC1=O [Example 1208] ({CH2CO}-FYDWV[Bip]A[NMeA][NMeF]RLVSCG-NH2; thioether N-14) | 820
11 | CC(C)C[C@@H]1NC(=O)[C@H](CCCNC(=N)N)NC(=O)[C@H](Cc2ccccc2)N(C)C(=O)[C@@H](CCCCN)NC(=O)[C@H](CCCNC(=N)N)NC(=O)[C@H](Cc2ccc(-c3ccccc3)cc2)NC(=O)[C@H](C(C)C)NC(=O)[C@H](Cc2c[nH]c3ccccc23)NC(=O)[C@H](CC(=O)O)NC(=O)[C@H](Cc2ccc(O)cc2)NC(=O)[C@H](CC(N)=O)NC(=O)CSC[C@@H](C(=O)N[C@@H](C)C(N)=O)NC(=O)[C@H]([C@@H](C)O)NC(=O)[C@H](C(C)C)NC1=O [Example 1369] ({CH2CO}-NYDWV[Bip]R[dK][NMeF]RLVTCA-NH2; thioether N-14) | 330
12 | CC(C)C[C@@H]1NC(=O)[C@H](CC(N)=O)NC(=O)CN(C)C(=O)[C@H](C)N(C)C(=O)[C@H](C(C)C)NC(=O)[C@H](Cc2ccc(-c3ccccc3)cc2)NC(=O)[C@H](CC2CCCCC2)NC(=O)[C@H](Cc2c[nH]c3ccccc23)NC(=O)[C@H](CC(=O)O)NC(=O)[C@H](Cc2ccc(O)cc2)NC(=O)[C@H](Cc2ccccc2)NC(=O)CSC[C@@H](C(=O)NCC(N)=O)NC(=O)[C@H](CO)NC(=O)[C@H](C(C)C)NC1=O [Example 1145] ({CH2CO}-FYDW[Cha][Bip]V[NMeA][Sar]NLVSCG-NH2; thioether N-14) | 640
13 | CC(C)C[C@@H]1NC(=O)[C@H](Cc2c[nH]c3ccccc23)NC(=O)[C@H](CC(=O)O)NC(=O)[C@H](Cc2ccc(O)cc2)NC(=O)[C@H](Cc2ccccc2)NC(=O)CSC[C@@H](C(=O)N[C@@H](C)C(N)=O)NC(=O)[C@H](CO)NC(=O)[C@H](C(C)C)NC(=O)[C@H](CC(C)C)NC(=O)[C@H](CC(N)=O)NC(=O)[C@H]2CCCN2C(=O)[C@H]2CCCN2C(=O)[C@H](C(C)C)NC(=O)[C@H](Cc2ccc(-c3ccccc3)cc2)NC1=O [Example 1007] ({CH2CO}-FYDWL[Bip]V[dP][dP]NLVSCA-NH2; thioether N-14) | 150
14 | CC(C)C[C@@H]1NC(=O)[C@H](CCCNC(=N)N)NC(=O)[C@H](Cc2ccccc2)N(C)C(=O)[C@H](C)N(C)C(=O)[C@H](CCCNC(=N)N)NC(=O)[C@H](Cc2ccc(-c3ccccc3)cc2)NC(=O)[C@H](C(C)C)NC(=O)[C@H](Cc2c[nH]c3ccccc23)NC(=O)[C@H](CC(=O)O)NC(=O)[C@H](Cc2ccc(O)cc2)NC(=O)[C@H](C)NC(=O)CSC[C@@H](C(=O)NCC(N)=O)NC(=O)[C@H](CO)NC(=O)[C@H](C(C)C)NC1=O [Example 1203] ({CH2CO}-AYDWV[Bip]R[NMeA][NMeF]RLVSCG-NH2; thioether N-14) | 850
15 | COc1cccc(C[C@@H]2NC(=O)[C@H](CC(=O)O)NC(=O)[C@H](Cc3ccc(O)cc3)NC(=O)[C@H](Cc3ccccc3)NC(=O)CSC[C@@H](C(=O)N[C@@H](C)C(N)=O)NC(=O)[C@H](CO)NC(=O)[C@H](C(C)C)NC(=O)[C@H](CC(C)C)NC(=O)[C@H](CC(N)=O)NC(=O)CN(C)C(=O)[C@H](C)N(C)C(=O)[C@H](C(C)C)NC(=O)[C@H](Cc3ccc(-c4ccccc4)cc3)NC(=O)[C@H](CC(C)C)NC2=O)c1 [Example 1106] ({CH2CO}-FYD[Phe(3-OMe)]L[Bip]V[NMeA][Sar]NLVSCA-NH2; thioether N-14) | 330
16 | CC(C)C[C@@H]1NC(=O)C(CCCNC(=N)N)NC(=O)[C@H](Cc2ccccc2)N(C)C(=O)[C@H](C)N(C)C(=O)[C@H](CCCNC(=N)N)NC(=O)[C@H](Cc2ccc(-c3ccccc3)cc2)NC(=O)[C@H](C(C)C)NC(=O)[C@H](Cc2c[nH]c3ccccc23)NC(=O)[C@H](CC(=O)O)NC(=O)[C@H](Cc2ccc(C(=O)O)cc2)NC(=O)[C@H](Cc2ccccc2)NC(=O)CSC[C@@H](C(=O)NCC(N)=O)NC(=O)[C@H](CO)NC(=O)[C@H](C(C)C)NC1=O (stereo partly shown) [Example 1222] ({CH2CO}-F[Phe(4-COOH)]DWV[Bip]R[NMeA][NMeF][ξR]LVSCG-NH2; thioether N-14) | 60
